The source of these data is patent US20220235051A1, “DI-FLUORO AZEPANES AS HBV CAPSID ASSEMBLY MODULATORS” (priority 2019, published 2022).

This experiment concerns HBV. Briefly: HBV replication inhibition assay (BDNA assay) in HepG2.2.15 cells. The experiment is classed as cell-based. To be noted: HepG2.2.15 cells, BDNA assay, encapsidated HBV DNA in supernatant at day 6, read-out: HepG2.2.15 EC50 HBV DNA. On the procedure: HBV replication inhibition by the disclosed compounds were determined in cells infected or transfected with HBV or cells with stably integrated HBV, such as HepG2.2.15 cells (Sells et al. 1987). In this example, HepG2.2.15 cells were maintained in cell culture medium containing 10% fetal bovine serum (FBS), Geneticin, L-glutamine, penicillin and streptomycin. HepG2.2.15 cells were seeded in 96-well plates at a density of 40,000 cells/well and were treated with serially diluted compounds at a final DMSO concentration of 0.5% either alone or in combination by adding drugs in a checker box format. Cells were incubated with compounds for three days, after which medium was removed and fresh medium containing compounds was added to cells and incubated for another three days. At day 6, supernatant was removed and treated with DNase at 37° C. for 60 minutes, followed by enzyme inactivation at 75° C. for 15 minutes. Encapsidated HBV DNA was released from the virions and covalently linked HBV polymerase by incubating in lysis buffer (Affymetrix QS0010) containing 2.5 μg proteinase K at 50° C. for 40 minutes. HBV DNA was denatured by addition of 0.2 M NaOH and detected using a branched DNA (BDNA) QuantiGene assay kit according to manufacturer recommendation (Affymetrix). HBV DNA levels were also quantified using qPCR, based on amplification of encapsidated HBV DNA extraction with QuickExtraction Solution (Epicentre Biotechnologies) and amplification of HBV DNA using HBV specific PCR probes that can hybridize to HBV DNA and a fluorescently labeled probe for quantitation. In addition, cell viability of HepG2.2.15 cells incubated with test compounds alone or in combination was determined by using CellTitre-Glo reagent according to the manufacturer protocol (Promega). The mean background signal from wells containing only culture medium was subtracted from all other samples, and percent inhibition at each compound concentration was calculated by normalizing to signals from HepG2.2.15 cells treated with 0.5% DMSO using equation E1.
% inhibition=(DMSOave−Xi)/DMSOave×100% E1
where DMSOave is the mean signal calculated from the wells that were treated with DMSO control (0% inhibition control) and Xi is the signal measured from the individual wells. EC50 values, effective concentrations that achieved 50% inhibitory effect, were determined by non-linear fitting using Graphpad Prism software (San Diego, Calif.) and equation E2.
Y=Ymin+(Ymax−Ymin)/(1+10(Log EC50−X)×HillSlope) E2
where Y represents percent inhibition values and X represents the logarithm of compound concentrations.
Selected disclosed compounds were assayed in the HBV replication assay (BDNA assay), as described above, and a representative group of these active compounds is shown in Table 3.

[1] abbreviates: Hepatitis B virus, HepG2.2.15, 144 h.

Where two headings read alike, the source gives them in different places.

Consider `C#C[C@]1(O)CCC(F)(F)c2c3c(nn2C1)C[C@@H](C)N(C(=O)Nc1ccnc(C(F)F)c1F)C3` (relative stereo) [Example 100, (3R,8S*)-N-(2-Difluoromethyl)-3-fluoropyridin-4-yl)-8-ethynyl-11,11-difluoro-8-hydroxy-3-methyl-3,4,8,9,10,11-hexahydro-1H-pyrido[4′,3′:3,4]pyrazolo[1,5-a]azepine-2(7H)-carboxamide], for which, under setting [1], the EC50 came to 0.168 µM. As to `C[C@@H]1Cc2nn3c(c2CN1C(=O)Nc1ccc(F)c(C#N)c1)C(F)(F)C[C@@H](CO)CC3` (relative stereo) [Example 132], the EC50 under setting [1] is 0.007 µM. Same read-out and setting: the result for `O=C(Nc1ccnc(Br)c1F)N1CCc2nn3c(c2C1)C(F)(F)CCC(O)(COCC(F)F)C3` (single isomer, unassigned) [Example 32, (R*)-N-(2-Bromo-3-fluoropyridin-4-yl)-8-((2,2-difluoroethoxy)methyl)-11,11-difluoro-8-hydroxy-3,4,8,9,10,11-hexahydro-1H-pyrido[4′,3′:3,4]pyrazolo[1,5-a]azepine-2(7H)-carboxamide] reads 0.138 µM; that for `O=C(Nc1ccnc(Br)c1F)N1CCc2nn3c(c2C1)C(F)(F)CCC(O)(CF)C3` (single isomer, unassigned) [Example 38, (S*)-N-(2-Bromo-3-fluoropyridin-4-yl)-11,11-di fluoro-8-(fluoromethyl) -8-hydroxy-3,4,8,9,10,11-hexahydro-1H-pyrido[4′,3′:3,4]pyrazolo[1,5-a]azepine-2(7H)-carboxamide], 0.084 µM; that for `C=CC1(O)CCC(F)(F)c2c3c(nn2C1)CCN(C(=O)Nc1ccc(F)c(C#N)c1)C3` (single isomer, unassigned) [Example 56, (R*)-N-(3-Cyano-4-fluorophenyl)-11,11-difluoro-8-hydroxy-8-vinyl-3,4,8,9,10,11-hexahydro-1H-pyrido[4′,3′:3,4]pyrazolo[1,5-a]azepine-2(7H)-carboxamide], 0.016 µM. As to `C#CC1(O)CCC(F)(F)c2c3c(nn2C1)CCN(C(=O)Nc1ccnc(Br)c1F)C3` (single isomer, unassigned) [Example 63, (R*)-N-(2-Bromo-3-fluoropyridin-4-yl)-8-ethynyl-11,11-difluoro-8-hydroxy-3,4,8,9,10,11-hexahydro-1H-pyrido[4′,3′:3,4]pyrazolo[1,5-a]azepine-2(7H)-carboxamide], the EC50 under setting [1] came to 0.119 µM. For `C[C@@H]1Cc2nn3c(c2CN1C(=O)Nc1ccc(F)c(C#N)c1)C(F)(F)CCC(CO)C3` (single isomer, unassigned) [Example 75, (3R,8S*)-N-(3-Cyano-4-fluorophenyl)-11,11-difluoro-8-(hydroxymethyl) -3-methyl-3,4,8,9,10,11-hexahydro-1H-pyrido[4′,3′:3,4]pyrazolo[1,5-a]azepine-2(7H)-carboxamide], the EC50 was found to be 0.005 µM. For the compound `C[C@@H]1Cc2nn3c(c2CN1C(=O)Nc1ccc(F)c(C#N)c1)C(F)(F)CCC(O)(CF)C3` (single isomer, unassigned) [Example 83, (3R,8R*)-N-(3-Cyano-4-fluorophenyl)-11,11-difluoro-8-(fluoromethyl)-8-hydroxy-3-methyl-3,4,8,9,10,11-hexahydro-1H-pyrido[4′,3′:3,4]pyrazolo[1,5-a]azepine-2(7H)-carboxamide], the 50% effective concentration (EC50) under setting [1] was 0.01 µM. For `C[C@@H]1Cc2nn3c(c2CN1C(=O)Nc1ccnc(Br)c1F)C(F)(F)CCC(O)(CF)C3` (single isomer, unassigned) [Example 84, (3R,8R*)-N-(2-Bromo-3-fluoropyridin-4-yl)-11,11-difluoro-8-(fluoromethyl)-8-hydroxy-3-methyl-3,4,8,9,10,11-hexahydro-1H-pyrido[4′,3′:3,4]pyrazolo[1,5-a]azepine-2(7H)-carboxamide], the half-maximal effective concentration (EC50) under setting [1] stood at 0.069 µM.

Take `C[C@@H]1Cc2nn3c(c2CN1C(=O)Nc1ccnc(Br)c1F)C(F)(F)CCC(O)(CC#N)C3` (single isomer, unassigned) [Example 89, (3R,8S*)-N-(2-Bromo-3-fluoropyridin-4-yl)-8-(cyanomethyl)-11,11-difluoro-8-hydroxy-3-methyl-3,4,8,9,10,11-hexahydro-1H-pyrido[4′,3′:3,4]pyrazolo[1,5-a]azepine-2(7H)-carboxamide]: under setting [1], the half-maximal effective concentration (EC50) is 0.028 µM. Still for that read-out and setting: the result for `C#CC1(O)CCC(F)(F)c2c3c(nn2C1)C[C@@H](C)N(C(=O)Nc1ccnc(C(F)F)c1F)C3` (single isomer, unassigned) [Example 97, (3R,8R*)-N-(2-(Difluoromethyl)-3-fluoropyridin-4-yl)-8-ethynyl-11,11-difluoro-8-hydroxy-3-methyl-3,4,8,9,10,11-hexahydro-1H-pyrido[4′,3′:3,4]pyrazolo[1,5-a]azepine-2(7H)-carboxamide] reads 0.035 µM; that for `C[C@@H]1Cc2nn3c(c2CN1C(=O)Nc1ccc(F)c(C#N)c1)C(F)(F)CC(O)CC3` (single isomer, unassigned) [Example 119, (3R,9S*)-N-(3-Cyano-4-fluorophenyl)-11,11-difluoro-9-hydroxyl-3-methyl-3,4,8,9,10,11-hexahydro-1H-pyrido[4′,3′:3,4]pyrazolo[1,5-a]azepine-2(7H)-carboxamide], 0.001 µM; that for `C[C@@H]1Cc2nn3c(c2CN1C(=O)Nc1ccnc(Br)c1F)C(F)=CC(O)CC3` (single isomer, unassigned) [Example 123, (3R,9R*)-N-(2-Bromo-3-fluoropyridin-4-yl)-11-fluoro-9-hydroxy-3-methyl-3,4,8,9-tetrahydro-1H-pyrido[4′,3′:3,4]pyrazolo[1,5-a]azepine-2(7H)-carboxamide], 0.018 µM. Still for that read-out and setting: the result for `C[C@@H]1Cc2nn3c(c2CN1C(=O)Nc1ccnc(Br)c1F)C(F)(F)CC(O)(CF)CC3` (single isomer, unassigned) [Example 127, (3R,9R*)-N-(2-Bromo-3-fluoropyridin-4-yl)-11,11-difluoro-9-(fluoromethyl)-9-hydroxy-3-methyl-3,4,8,9,10,11-hexahydro-1H-pyrido[4′,3′:3,4]pyrazolo[1,5-a]azepine-2(7H)-carboxamide] reads 0.005 µM; that for `C[C@@H]1Cc2nn3c(c2CN1C(=O)Nc1ccc(F)c(C#N)c1)C(F)(F)CC(O)(CF)CC3` (single isomer, unassigned) [Example 128, (3R,9R*)-N-(3-Cyano-4-fluorophenyl)-11,11-difluoro-9-(fluoromethyl)-9-hydroxy-3-methyl-3,4,8,9,10,11-hexahydro-1H-pyrido[4′,3′:3,4]pyrazolo[1,5-a]azepine-2(7H)-carboxamide], 0.001 µM. Same read-out and setting: the result for `O=C(Nc1ccnc(Br)c1F)N1CCc2nn3c(c2C1)C(F)(F)CC(CO)CC3` (single isomer, unassigned) [Example 133, (S*)-N-(2-Bromo-3-fluoropyridin-4-yl)-11,11-difluoro-9-(hydroxymethyl)-3,4,8,9,10,11-hexahydro-1H-pyrido[4′,3′:3,4]pyrazolo[1,5-a]azepine-2(7H)-carboxamide] reads 0.038 µM; that for `O=C(Nc1ccnc(Br)c1F)N1CCc2nn3c(c2C1)C(F)(F)CC(CO)CC3` (single isomer, unassigned) [Example 135, (R*)-N-(2-Bromo-3-fluoropyridin-4-yl)-11,11-difluoro-9-(hydroxymethyl)-3,4,8,9,10,11-hexahydro-1H-pyrido[4′,3′:3,4]pyrazolo[1,5-a]azepine-2(7H)-carboxamide], 0.019 µM; that for `C[C@@]1(O)CCC(F)(F)c2c3c(nn2C1)CCN(C(=O)Nc1ccc(F)c(C#N)c1)C3` (stereo in doubt) [Example 55, N-(3-Cyano-4-fluorophenyl)-11,11-difluoro-8-hydroxy-8-methyl-3,4,8,9,10,11-hexahydro-1H-pyrido[4′,3′:3,4]pyrazolo[1,5-a]azepine-2(7H)-carboxamide], 0.029 µM. For `C=C1CCC(F)(F)c2c3c(nn2C1)CCN(C(=O)Nc1ccc(F)c(C#N)c1)C3` [Example 1, N-(3-Cyano-4-fluorophenyl)-11,11-difluoro-8-methylene-3,4,8,9,10,11-hexahydro-1H-pyrido[4′,3′:3,4]pyrazolo[1,5-a]azepine-2(7H)-carboxamide], the concentration for a half-maximal effect (EC50) under setting [1] was found to be 0.044 µM.

Take `C=C1CCC(F)(F)c2c3c(nn2C1)CCN(C(=O)Nc1ccc(F)c(C(F)(F)F)c1)C3` [Example 2, 11,11-Difluoro-N-(4-fluoro-3-(trifluoromethyl)phenyl)-8-methylene-3,4,8,9,10,11-hexahydro-1H-pyrido[4′,3′:3,4]pyrazolo[1,5-a]azepine-2(7H)-carboxamide]: the half-maximal effective concentration (EC50) under setting [1] came out at 0.051 µM.

As usually defined, the EC50 is the midpoint of the concentration-response curve.
